Test results taken from patent publication US6537576B1, “Biologically active composition” (Bioglan AB, priority 1998, dated 2003).

Assay: Solubility of piroxicam in PEG400 (HPLC)
Type: physicochemical
Details: piroxicam in PEG400, excess stirred 2 weeks at room temperature, HPLC analysis

solubility: 1.6%
Compound: CN1C(C(=O)Nc2ccccn2)=C(O)c2ccccc2S1(=O)=O [piroxicam]
